Patent publication US20240199647A1, “ANTI-VIRAL COMPOUNDS” (Aligos Therapeutics, Inc., priority 2022, published 2024)
Where two headings read alike, the source gives them in different places.

Key:
[1] = biological target: SARS-Cov-2 3CLpro (Severe acute respiratory syndrome coronavirus 2, UniProt P0DTD1); test: biochemical; settings: Table A, class symbols, read-out: SARS-Cov-2 (IC50)
[2] = in vitro; settings: human
[3] = Cytotoxicity in HeLa cells without addition of OC43 virus (in parallel); settings: human, HeLa cells, without OC43 virus
[4] = test system: human beta-coronavirus OC43; test: OC43 Coronavirus Assay in HeLa cells (antiviral, cytopathic effect, cell-titer-glo); assay type: cell-based; settings: Betacoronavirus 1, OC43, HeLa
[5] = test system: SARS-CoV-2 B.1.1.7 lineage; test: microbe, parasite or virus in culture; assay type: cell-based; settings: Severe acute respiratory syndrome coronavirus 2, Table C, SARS-CoV-2 B.1.1.7 in A549-dual_ACE2_TMPRSS2 cells, read-out: A549-dual_ACE2_TMPRSS2 (EC50)
[6] = Table B, OC43 coronavirus in HeLa cells, class symbols, read-out: EC50

Work on `CN(C(=O)[C@H](CC1CC1)n1cc(C2CC2)nn1)[C@@H](CC1CC1)C(=O)N1C[C@@]2(C[C@H]1C#N)Oc1cc(F)cc(F)c1NC2=O` [Compound 108, (S)—N—((S)-1-((2R,5'S)-5′-cyano-5,7-difluoro-3-oxo-3,4-dihydrospiro[benzo[b][1,4]oxazine-2,3′-pyrrolidin]-1′-yl)-3-cyclopropyl-1-oxopropan-2-yl)-3-cyclopropyl-2-(4-cyclopropyl-1H-1,2,3-triazol-1-yl)-N-methylpropanamide] yielded an IC50 [1] of less than 0.02 µM, a CC50 [2] greater than 1 µM and a CC50 at 6 days [3] greater than 10 µM. For the same molecule, the EC50 [4, 6] was 0.1 to 1 µM and the EC50 ([5]; class symbols) was less than 0.1 µM.
With `CN(C(=O)[C@@H]1CC[C@@H](c2ccccc2)N1)[C@@H](CC1CC1)C(=O)N1C[C@@]2(C[C@H]1C#N)Oc1cc(F)cc(F)c1NC2=O` [Compound 111, (2S,5S)—N—((S)-1-((2R,5'S)-5′-cyano-5,7-difluoro-3-oxo-3,4-dihydrospiro[benzo[b][1,4]oxazine-2,3′-pyrrolidin]-1′-yl)-3-cyclopropyl-1-oxopropan-2-yl)-N-methyl-5-phenylpyrrolidine-2-carboxamide] the IC50 [1] was less than 0.02 µM, the CC50 [2] was greater than 1 µM and the CC50 at 6 days [3] was greater than 10 µM. The EC50 [4, 6] was 0.1 to 1 µM and the EC50 ([5]; class symbols) was 0.1 to 1 µM.
Molecule `CN(C)C(=O)c1ccc2c(c1)O[C@@]1(C[C@@H](C#N)N(C(=O)[C@H](CC3CC3)N(C)C(=O)[C@H](CC3CC3)NC(=O)C(F)(F)F)C1)C(=O)N2` [Compound 112, (2R,5'S)-5′-cyano-1′-((S)-3-cyclopropyl-2-((S)-3-cyclopropyl-N-methyl-2-(2,2,2-trifluoroacetamido)propanamido)propanoyl)-N,N-dimethyl-3-oxo-3,4-dihydrospiro[benzo[b][1,4]oxazine-2,3′-pyrrolidine]-7-carboxamide] has an IC50 [1] of less than 0.02 µM, a CC50 [2] greater than 1 µM and a CC50 at 6 days [3] greater than 10 µM. It also gave an EC50 [4, 6] of less than 0.1 µM and an EC50 ([5]; class symbols) of 0.1 to 1 µM.
Molecule `CN(C(=O)[C@H](CC1CC1)NC(=O)C(F)(F)F)[C@@H](CC1CC1)C(=O)N1C[C@@]2(C[C@H]1C#N)Oc1ccccc1C1(CC1)NC2=O` [Compound 113] has an IC50 [1] of 0.02 to 0.2 µM, a CC50 [2] greater than 1 µM and a CC50 at 6 days [3] greater than 10 µM. It also gave an EC50 [4, 6] of 0.1 to 1 µM and an EC50 ([5]; cells given as a bound) greater than 1 µM.
`CN(C(=O)[C@H](CC1CC1)n1cc(-c2ccccc2)nn1)[C@@H](CC1CC1)C(=O)N1C[C@@]2(C[C@H]1C#N)Oc1cc(F)cc(F)c1NC2=O` [Compound 114, (S)—N—((S)-1-((2R,5'S)-5′-cyano-5,7-difluoro-3-oxo-3,4-dihydrospiro[benzo[b][1,4]oxazine-2,3′-pyrrolidin]-1′-yl)-3-cyclopropyl-1-oxopropan-2-yl)-3-cyclopropyl-N-methyl-2-(4-phenyl-1H-1,2,3-triazol-1-yl)propenamide] gave an IC50 [1] of less than 0.02 µM, a CC50 [2] greater than 1 µM and a CC50 at 6 days [3] greater than 10 µM. The EC50 [4, 6] was 0.1 to 1 µM and the EC50 ([5]; class symbols) was 0.1 to 1 µM.
In the case of `C[C@H](NC(=O)C(F)(F)F)C(=O)N(C)[C@@H](COC(C)(C)C)C(=O)N1C[C@@]2(C[C@H]1C#N)Oc1cc(F)cc(F)c1NC2=O` [Compound 115, (S)—N—((S)-3-(t-butoxy)-1-((2R,5'S)-5′-cyano-5,7-difluoro-3-oxo-3,4-dihydrospiro[benzo[b][1,4]oxazine-2,3′-pyrrolidin]-1′-yl)-1-oxopropan-2-yl)-N-methyl-2-(2,2,2-trifluoroacetamido)propenamide], the IC50 [1] is reported as less than 0.02 µM, the CC50 [2] is reported as greater than 1 µM and the CC50 at 6 days [3] is reported as greater than 10 µM. For the same molecule, the EC50 [4, 6] was 0.1 to 1 µM and the EC50 ([5]; class symbols) was 0.1 to 1 µM.
Work on `CC(C)N1CC2(CC2)C[C@H]1C(=O)N(C)[C@@H](CC1CC1)C(=O)N1C[C@@]2(C[C@H]1C#N)Oc1cc(F)cc(F)c1NC2=O` [Compound 116] yielded an IC50 [1] of less than 0.02 µM, a CC50 [2] greater than 1 µM and a CC50 at 6 days [3] greater than 10 µM. The EC50 [4, 6] was 0.1 to 1 µM and the EC50 ([5]; class symbols) was 0.1 to 1 µM.
With `CC(C)OC(=O)N[C@@H](C)C(=O)N(C)[C@@H](CC1CC1)C(=O)N1C[C@@]2(C[C@H]1C#N)Oc1cc(F)cc(F)c1NC2=O` [Compound 120, isopropyl ((S)-1-(((S)-1-((2R,5'S)-5′-cyano-5,7-difluoro-3-oxo-3,4-dihydrospiro[benzo[b][1,4]oxazine-2,3′-pyrrolidin]-1′-yl)-3-cyclopropyl-1-oxopropan-2-yl)(methyl)amino)-1-oxopropan-2-yl)carbamate] the IC50 [1] was less than 0.02 µM, the CC50 [2] was greater than 1 µM and the CC50 at 6 days [3] was greater than 10 µM. The EC50 [4, 6] was 0.1 to 1 µM and the EC50 ([5]; class symbols) was 0.1 to 1 µM.
Molecule `CN(C(=O)[C@H](CC1CC1)NC(=O)C(F)(F)F)[C@@H](CC1CC1)C(=O)N1C[C@@]2(C[C@H]1C#N)Oc1cccnc1CNC2=O` [Compound 121, (S)—N—((S)-1-((2R,5'S)-5′-cyano-3-oxo-4,5-dihydro-3H-spiro[pyrido[2,3-f][1,4]oxazepine-2,3′-pyrrolidin]-1′-yl)-3-cyclopropyl-1-oxopropan-2-yl)-3-cyclopropyl-N-methyl-2-(2,2,2-trifluoroacetamido)propanamide] has an IC50 [1] of less than 0.02 µM, a CC50 [2] greater than 1 µM and a CC50 at 6 days [3] greater than 10 µM. It also gave an EC50 [4, 6] of less than 0.1 µM and an EC50 ([5]; class symbols) of 0.1 to 1 µM.
In the case of `CN(C(=O)[C@H](CC1CC1)NC(=O)C(F)(F)F)[C@@H](CC1CC1)C(=O)N1C[C@@]2(CC1C#N)Oc1c(C#N)cccc1NC2=O` (stereo partly drawn) [Compound 124], the IC50 [1] is reported as less than 0.02 µM, the CC50 [2] is reported as greater than 1 µM and the CC50 at 6 days [3] is reported as greater than 10 µM. It also gave an EC50 [4, 6] of less than 0.1 µM and an EC50 ([5]; class symbols) of 0.1 to 1 µM.
`CN(C(=O)[C@H](CC1CC1)NC(=O)C(F)(F)F)[C@@H](CC1CC1)C(=O)N1C[C@@]2(C[C@H]1C#N)Oc1c(cccc1-c1ccccc1)NC2=O` [Compound 125, (S)—N—((S)-1-((2R,5'S)-5′-cyano-3-oxo-8-phenyl-3,4-dihydrospiro[benzo[b][1,4]oxazine-2,3′-pyrrolidin]-1′-yl)-3-cyclopropyl-1-oxopropan-2-yl)-3-cyclopropyl-N-methyl-2-(2,2,2-trifluoroacetamido)propanamide] gave an IC50 [1] of less than 0.02 µM, a CC50 [2] greater than 1 µM and a CC50 at 6 days [3] greater than 10 µM. The EC50 [4, 6] was less than 0.1 µM and the EC50 ([5]; class symbols) was less than 0.1 µM.
`Cc1cnc2c(c1)NC(=O)[C@]1(C[C@@H](C#N)N(C(=O)[C@H](CC3CC3)N(C)C(=O)[C@H](CC3CC3)NC(=O)C(F)(F)F)C1)O2` [Compound 126, (S)—N—((S)-1-((3R,5'S)-5′-cyano-7-methyl-2-oxo-1,2-dihydrospiro[pyrido[2,3-b][1,4]oxazine-3,3′-pyrrolidin]-1′-yl)-3-cyclopropyl-1-oxopropan-2-yl)-3-cyclopropyl-N-methyl-2-(2,2,2-trifluoroacetamido)propanamide] showed an IC50 [1] of less than 0.02 µM, a CC50 [2] greater than 1 µM and a CC50 at 6 days [3] greater than 10 µM. It also gave an EC50 [4, 6] of less than 0.1 µM and an EC50 ([5]; class symbols) of 0.1 to 1 µM.
Molecule `CN(C(=O)[C@@H]1CCN(C(=O)C(F)(F)F)C1)[C@@H](CC1CC1)C(=O)N1C[C@@]2(C[C@H]1C#N)Oc1cc(F)cc(F)c1NC2=O` [Compound 128] has an IC50 [1] of 0.2 to 2 µM, a CC50 [2] greater than 1 µM and a CC50 at 6 days [3] greater than 10 µM. For the same molecule, the EC50 [4] was greater than 10 µM and the EC50 ([5]; class symbols) was 0.1 to 1 µM.
For `CN(C(=O)[C@H]1CCN(C(=O)C(F)(F)F)C1)[C@@H](CC1CC1)C(=O)N1C[C@@]2(C[C@H]1C#N)Oc1cc(F)cc(F)c1NC2=O` [Compound 129], the IC50 [1] was 0.2 to 2 µM, the CC50 [2] was greater than 1 µM and the CC50 at 6 days [3] was greater than 10 µM. It also gave an EC50 [4] greater than 10 µM and an EC50 ([5]; class symbols) of 0.1 to 1 µM.
For `Cc1c(-c2ccccc2)nn2c1NC(=O)[C@]21C[C@@H](C#N)N(C(=O)[C@H](CC(C)C)N(C)C(=O)[C@H](C)NC(=O)C(F)(F)F)C1` [Compound 130], the IC50 [1] was 0.02 to 0.2 µM, the CC50 [2] was greater than 1 µM and the CC50 at 6 days [3] was greater than 10 µM. For the same molecule, the EC50 [4, 6] was 0.1 to 1 µM and the EC50 ([5]; class symbols) was 0.1 to 1 µM.
